Structures can show the parent of a compound that is named as a salt. Where two headings read alike, the source gives them in different places.
How the values were obtained:
[1] = tested on: human PRP (platelet rich plasma); experiment: Inhibitory activity against platelet aggregation (ADP-induced, human PRP); type: cell-based; conditions: aggregation inducer ADP 5 µM, preincubated 2 min
Protocol: The inhibitory activity of the compound according to the present invention against platelet aggregation was examined with human PRP (platelet rich plasma).
Nine volumes of a blood sample was taken out of the vein of a normal human being with a syringe in which one volume of a 3.8% sodium citrate solution was charged. The blood sample was centrifuged at 170 x g at room temperature for 10 min. The supernatant thus obtained was isolated as PRP. The residual blood sample that PRP had been taken out was centrifuged at 2,700 x g for 15 min. The supernatant was then taken as platelet poor plasma (PPP).
A platelet aggregation test was carried out with an aggligometer (PAM-8C, manufactured by MEBANICKS Co. Ltd.). Compounds under test were dissolved in physiological saline, 0.1 N hydrochloric acid-physiological saline, or 1 N aqueous sodium hydroxide solution-physiological saline. The compound under test and PRP were preincubated for 2 min. An aggregation inducer ADP (CHRONO-PAR REAGENTS 384 ADP, CHRONO-LOG Corp.) was used after dilution with physiological saline to a final concentration of 5 µM.
The anti-platelet aggregation activity was determined as an inhibition rate to platelet aggregation effect of ADP in the absence of a compound under tent as follows. Anti-platelet aggregation activity (%) = [1 - (aggregation rate by ADP in the presence of test compound/aggregation rate by ADP in the absence of test compound)] x 100 [formula]

[2] = molecular target: T1, human platelet GPIIb/IIIa (Homo sapiens, UniProt P05106+P08514); experiment: Inhibitory activity against binding between platelet GPIIb/IIIa and fibrinogen (solid phase receptor binding)
T1 construct: the adsorbed GPIIb/IIIa was eluted with buffer A containing 2 mM GRGDSPK peptide; from tissue
Description: The inhibitory activity of the compounds of the present invention against binding between platelet GPIIb/IIIa and fibrinogen was examined by means of a human platelet GPIIb/IIIa solid phase receptor binding experiment system using a biotinylated human fibrinogen as a ligand.
At the outset, human platelet GPIIb/IIIa was purified according to a method established by Pytela, R et al. (Science, 231, 1559-1561 (1986)). Specifically, platelets collected from a normal human being was washed with TBS (0.15 M NaCl/50 mM Tris-HCl buffer (pH 7.5)) containing 0.2% (w/v) glucose. To the resultant pellet was added an equal amount of TBS containing 50 mM octylglucoside and 2 mM PMSF, followed by solubilization of membrane protein at 4°C for 20 min. The extract was centrifuged under conditions of 4°C, 3500 x g, and 20 min. To the supernatant were added 1 mM CaCl2 and 1 mM MgCl2. Thus, a sample for affinity chromatography was prepared. The solubilized protein solution was adsorbed on a GRGDSPK-Sepharose column which had been previously equilibrated with TBS containing 50 mM octylglucoside, 1 mM CaCl2, and 1 mM MgCl2 (buffer A). After washing with buffer A, the adsorbed GPIIb/IIIa was eluted with buffer A containing 2 mM GRGDSPK peptide.
The GRGDSPK-Sepharose was prepared by coupling of GRGDSPK peptide with CNBr-activated Sepharose 4B (manufactured by Pharmacia) according to the instruction manual of the manufacturer.
Next, a human platelet GPIIb/IIIa solid phase receptor binding test was carried out according to a method established by Mori et al. (Nippon Kessen Shiketsu Gakkaishi, 2(4), 323-329 (1991)).
Purified human platelet GPIIb/IIIa was adjusted to 2 µg/ml, and an 50 µl aliquot was adsorbed on each well of a 96 well microtiter plate at 4°C overnight. After washing with TBS containing 1 mM CaCl2 and 1 mM MgCl2, 100 µl of 1% bovine serum albumin was added to each of the wells, followed by blocking at 4°C overnight. The microtiter plate was then washed with TBS containing 0.01% Tween 20 (TBS-Tween 20), and 50 µl of biotinylated fibrinogen, which had been adjusted to 1 µg/ml, was added to each of the wells. Simultaneously, 50 µl of the test compound, which had been adjusted to appropriate concentrations, was added thereto, followed by a reaction at room temperature for 4 hr. After washing with TBS-Tween 20, 50 µl of peroxidase-labelled avidin, which had been diluted 4000 times with TBS, was added to each of the wells, followed by a reaction for 20 min. After washing with TBS-Tween 20, 50 µl of a solution of 1 mg/ml ABTS (2,2'-azino-bis(3-ethylbenzthiazoline-6-sulfonic acid) dissolved in a peroxidase substrate buffer, which had been diluted 10 times, was added to each of the wells, and a reaction was allowed to proceed for 5 min. Next, 50 µl of a 0.1 M citric acid buffer (pH 4.3) containing 0.05% NaN3 was added to each of the wells to terminate the reaction, and the absorbance was measured at 415 nm.
The binding inhibition was calculated by the following equation.
Binding inhibition (%) = [1 - (absorbance with test compound/absorbance without test compound)] x 100

human TXA2 synthetase = molecular target: T2, human TXA2 synthetase (Homo sapiens, UniProt P24557); experiment: Inhibitory activity against thromboxane A2 (TXA2) synthetase; type: biochemical
T2 construct: purchased BIOMOL
T2 sequence (P24557 1-533): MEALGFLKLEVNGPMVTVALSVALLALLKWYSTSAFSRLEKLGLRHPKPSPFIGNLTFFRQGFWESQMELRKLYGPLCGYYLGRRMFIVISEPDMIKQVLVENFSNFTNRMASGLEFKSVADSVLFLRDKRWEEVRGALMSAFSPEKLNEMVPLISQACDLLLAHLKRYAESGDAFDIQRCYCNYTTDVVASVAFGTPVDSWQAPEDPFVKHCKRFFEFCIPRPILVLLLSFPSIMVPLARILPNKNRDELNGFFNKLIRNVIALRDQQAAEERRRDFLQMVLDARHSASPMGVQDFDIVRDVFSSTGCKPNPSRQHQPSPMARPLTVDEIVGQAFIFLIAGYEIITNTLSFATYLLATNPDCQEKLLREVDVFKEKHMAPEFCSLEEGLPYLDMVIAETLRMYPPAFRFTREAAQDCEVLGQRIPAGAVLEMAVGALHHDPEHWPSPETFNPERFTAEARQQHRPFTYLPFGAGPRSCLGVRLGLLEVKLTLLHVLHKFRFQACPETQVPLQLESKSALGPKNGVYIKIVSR
Protocol: The inhibitory activity of the compound of the present invention against TXA2 synthetase was assayed according to a method established by Ri et al. (Nihon Yakuri Gakkaishi, 106, 31 (1995)). A specimen solution (10 µl) was added to 100 µl of a 50 mM Tris-HCl buffer (containing 0.1 M NaCl, pH 7.5, 25°C) containing 10 µg of human TXA2 synthetase (BIOMOL), and incubation was then carried out at 25°C for 3 min. Next, 2 µl of 50 µg/ml PGH2 solution (Cayman Chemical) was added thereto to initiate an enzyme reaction, followed by the reaction at 25°C for 3 min. An aqueous ferrous chloride solution (25 mM, 10 µl) was added thereto to terminate the reaction. The reaction system was allowed to stand at room temperature for 15 min and then centrifuged under conditions of 4°C, 3000 x g, and 10 min. The supernatant was obtained as a sample for quantitative determination of TXB2. The amount of TXB2 was determined by means of Thromboxane B2 Enzyme Immunoassay Kit (Cayman Chemical). After a color reaction, the absorbance was measured at 415 nm with a microplate reader (MTP-32, manufactured by Corona Electric Co., Ltd.). The inhibition against TXA2 synthetase activity was calculated by the following equation, and 50% inhibition concentration was determined by regression straight line. Inhibition (%) = (1 - B/A) x 100 [formula] wherein • A represents the amount of TXB2 produced without the test compound; and • B represents the amount of TXB2 produced with the test compound.

[3] = purified human platelet GPIIb/IIIa, biotinylated human fibrinogen as ligand, read-out: IC50
[4] = human TXA2 synthetase, PGH2 substrate, 25°C, TXB2 determined by enzyme immunoassay, read-out: IC50

T1 sequence (P08514 32-887 limits assumed): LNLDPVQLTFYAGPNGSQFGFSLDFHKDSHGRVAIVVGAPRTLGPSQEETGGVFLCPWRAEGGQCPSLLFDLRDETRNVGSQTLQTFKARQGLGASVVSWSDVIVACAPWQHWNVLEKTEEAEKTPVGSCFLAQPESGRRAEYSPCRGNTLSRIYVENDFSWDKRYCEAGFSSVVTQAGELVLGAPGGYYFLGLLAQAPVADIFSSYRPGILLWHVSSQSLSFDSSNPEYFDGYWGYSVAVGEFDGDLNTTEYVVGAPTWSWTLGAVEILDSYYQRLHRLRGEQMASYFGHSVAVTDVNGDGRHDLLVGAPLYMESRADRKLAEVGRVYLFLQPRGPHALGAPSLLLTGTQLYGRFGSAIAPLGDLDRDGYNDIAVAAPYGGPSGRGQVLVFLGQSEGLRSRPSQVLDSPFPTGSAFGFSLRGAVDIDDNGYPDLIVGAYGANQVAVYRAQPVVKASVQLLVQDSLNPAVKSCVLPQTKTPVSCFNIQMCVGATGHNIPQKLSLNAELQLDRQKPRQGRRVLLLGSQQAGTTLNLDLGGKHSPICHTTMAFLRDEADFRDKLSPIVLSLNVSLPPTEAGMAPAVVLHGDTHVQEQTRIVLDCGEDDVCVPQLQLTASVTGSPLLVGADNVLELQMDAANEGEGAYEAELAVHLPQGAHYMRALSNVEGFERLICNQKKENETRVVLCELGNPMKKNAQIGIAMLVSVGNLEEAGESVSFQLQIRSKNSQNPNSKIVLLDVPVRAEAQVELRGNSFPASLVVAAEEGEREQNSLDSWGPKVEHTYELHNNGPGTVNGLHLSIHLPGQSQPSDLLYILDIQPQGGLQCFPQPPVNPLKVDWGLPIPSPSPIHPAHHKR
T1 sequence (P08514 891-1039 partner limits assumed): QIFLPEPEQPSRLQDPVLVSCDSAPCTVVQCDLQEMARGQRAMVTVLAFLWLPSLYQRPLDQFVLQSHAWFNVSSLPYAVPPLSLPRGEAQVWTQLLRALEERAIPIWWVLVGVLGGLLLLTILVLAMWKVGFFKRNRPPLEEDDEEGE
T1 sequence (P05106 27-788): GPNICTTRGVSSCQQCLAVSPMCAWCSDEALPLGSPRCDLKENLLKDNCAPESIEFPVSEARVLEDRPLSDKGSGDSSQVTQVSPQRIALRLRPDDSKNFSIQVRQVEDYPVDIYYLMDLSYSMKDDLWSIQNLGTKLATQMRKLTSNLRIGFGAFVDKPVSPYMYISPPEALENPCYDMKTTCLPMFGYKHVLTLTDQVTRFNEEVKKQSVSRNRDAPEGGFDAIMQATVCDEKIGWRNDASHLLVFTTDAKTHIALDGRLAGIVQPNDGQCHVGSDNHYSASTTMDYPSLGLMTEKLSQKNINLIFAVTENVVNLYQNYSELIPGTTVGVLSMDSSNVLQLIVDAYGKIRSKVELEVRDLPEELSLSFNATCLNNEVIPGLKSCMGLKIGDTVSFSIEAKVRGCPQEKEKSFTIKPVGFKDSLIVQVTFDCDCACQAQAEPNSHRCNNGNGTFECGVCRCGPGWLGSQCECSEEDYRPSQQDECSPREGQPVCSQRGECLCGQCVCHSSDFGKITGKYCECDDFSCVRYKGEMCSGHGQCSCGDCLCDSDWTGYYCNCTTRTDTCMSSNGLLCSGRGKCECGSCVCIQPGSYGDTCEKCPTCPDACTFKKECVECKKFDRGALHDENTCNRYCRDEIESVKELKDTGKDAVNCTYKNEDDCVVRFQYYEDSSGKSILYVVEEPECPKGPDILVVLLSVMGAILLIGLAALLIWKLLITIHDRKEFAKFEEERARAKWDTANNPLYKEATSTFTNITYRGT

Row | Compound | IC50 ([1]; Platelet) | IC50 [2, 3] | IC50 (human TXA2 synthetase; [4]) | IC50 [2] | IC50 (human TXA2 synthetase) | IC50 ([2]; purified human platelet GPIIb/IIIa, biotinylated human fibrinogen as ligand) | IC50 (human TXA2 synthetase; human TXA2 synthetase, PGH2 substrate, 25°C, TXB2 determined by enzyme immunoassay) | IC50 [1]
1 | O=C(O)COc1ccc(C(=O)CNC(=O)c2cc3c(s2)CCNC3)cc1Cn1ccnc1 [Example 1, [2-(Imidazol-1-yl)methyl-4-[[[4,5,6,7-tetrahydrothieno[3,2-c]pyridin-2-yl]carbonylamino]acetyl]phenyl]oxyacetic acid trifluoroacetate (TFA)] | 4400 nM | 270 nM | 360 nM |  |  |  |  | 
2 | O=C(O)COc1ccc(C(=O)CNC(=O)c2cc3c(s2)CCNC3)cc1COc1cccnc1 [Example 2, [2-(Pyridin-3-yl)oxymethyl-4-[[[4,5,6,7-tetrahydrothieno[3,2-c]pyridin-2-yl]carbonylamino]acetyl]phenyl]oxyacetic acid trifluoroacetate] | 9300 nM | 270 nM | > 10000 nM |  |  |  |  | 
3 | O=C(O)COc1ccc(C(CNC(=O)c2cc3c(s2)CCNC3)Oc2cccnc2)cc1OCC(=O)O (stereo not drawn) [Example 3, [[4-[2-[[4,5,6,7-Tetrahydrothieno[3,2-c]pyridin-2-yl]carbonyl]amino-1-[(pyridin-3-yl)oxy]ethyl]-o-phenylene]dioxy]diacetic acid trifluoroacetate] | 360 nM | 1.4 nM | 550 nM |  |  |  |  | 
4 | CN(CC(Oc1cccnc1)c1ccc(OCC(=O)O)c(OCC(=O)O)c1)C(=O)c1cc2c(s1)CCNC2 (stereo not drawn) [Example 4, [[4-[2-[[(4,5,6,7-Tetrahydrothieno[3,2-c]pyridin-2-yl)carbonyl]-N-methylamino]-1-(pyridin-3-yl)oxyethyl]-o-phenylene]dioxy]diacetic acid trifluoroacetate] | 140 nM | 4.8 nM | 870 nM |  |  |  |  | 
5 | O=C(O)COc1ccc(C(CNC(=O)c2cc3c(s2)CCNC3)Oc2cccnc2)cc1 (stereo not drawn) [Example 5, [4-[2-[[(4,5,6,7-Tetrahydrothieno[3,2-c]pyridin-2-yl)carbonyl]amino]-1-(pyridin-3-yl)oxyethyl]phenyl]oxyacetic acid trifluoroacetate] | 280 nM | 10 nM | 160 nM |  |  |  |  | 
6 | O=C(O)COc1ccc(C(=O)CN2CCN(C3CCNCC3)CC2=O)cc1Cn1ccnc1 [Example 6, [2-(1-Imidazolylmethyl)-4-[[4-(piperidin-4-yl)-2-oxopiperazin-1-yl]acetyl]phenyl]oxyacetic acid trifluoroacetate] | 71 nM |  |  | 12 nM | 570 nM |  |  | 
7 | O=C(O)COc1ccc(C(=O)CN2C(=O)CN(C3CCNCC3)CC2=O)cc1Cn1ccnc1 [Example 8, [2-(1-Imidazolylmethyl)-4-[[4-(piperidin-4-yl)-2,6-dioxopiperazin-1-yl]acetyl]phenyl]oxyacetic acid trifluoroacetate] | 31 nM |  |  |  |  | 190 nM | 690 nM | 
8 | [4-[[4-(Piperidin-4-yl)-2-oxopiperazin-1-yl]acetyl]-2-(3-pyridyloxymethyl)phenyl]oxyacetic acid trifluoroacetate [Example 7] |  | 23 nM | > 10000 nM |  |  |  |  | 93 nM
